For the assay, the target named is T1, human DGKζ (Homo sapiens, UniProt Q13574).
T1 construct: made in house; host or cells: Sf9 insect cells, baculovirus
T1 sequence (Q13574 with tags, fused parts or gaps): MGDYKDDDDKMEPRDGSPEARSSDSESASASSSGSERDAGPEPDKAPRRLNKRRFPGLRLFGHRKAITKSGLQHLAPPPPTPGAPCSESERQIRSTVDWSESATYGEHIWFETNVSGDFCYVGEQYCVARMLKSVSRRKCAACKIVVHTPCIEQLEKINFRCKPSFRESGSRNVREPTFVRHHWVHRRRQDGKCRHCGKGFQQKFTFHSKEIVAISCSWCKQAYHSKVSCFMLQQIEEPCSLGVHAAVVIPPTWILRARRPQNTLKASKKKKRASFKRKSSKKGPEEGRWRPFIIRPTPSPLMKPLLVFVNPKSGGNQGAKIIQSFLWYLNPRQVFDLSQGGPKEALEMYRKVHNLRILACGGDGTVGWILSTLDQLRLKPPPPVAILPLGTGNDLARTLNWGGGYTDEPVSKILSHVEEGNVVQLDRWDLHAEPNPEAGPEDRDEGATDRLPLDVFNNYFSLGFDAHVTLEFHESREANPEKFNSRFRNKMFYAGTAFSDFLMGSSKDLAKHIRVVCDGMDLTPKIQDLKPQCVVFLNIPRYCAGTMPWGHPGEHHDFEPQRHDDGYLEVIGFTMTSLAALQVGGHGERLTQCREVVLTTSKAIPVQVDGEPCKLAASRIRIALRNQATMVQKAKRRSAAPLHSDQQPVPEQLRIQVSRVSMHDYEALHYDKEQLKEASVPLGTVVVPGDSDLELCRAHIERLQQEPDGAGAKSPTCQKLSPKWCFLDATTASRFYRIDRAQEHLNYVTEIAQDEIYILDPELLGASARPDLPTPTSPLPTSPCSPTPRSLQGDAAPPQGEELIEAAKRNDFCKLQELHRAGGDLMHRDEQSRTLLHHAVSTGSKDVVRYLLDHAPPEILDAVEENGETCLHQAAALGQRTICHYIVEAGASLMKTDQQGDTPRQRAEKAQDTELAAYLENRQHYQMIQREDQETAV
Nature of the assay: Human DGKζ kinase activity inhibition assay (ADP-Glo). The class given is biochemical. The settings on record: example compounds; recombinant full-length human DGKζ, 1,2-dioleoyl-sn-glycerol 7 μM, ATP 55 μM, 20 min at 22° C.; read-out: IC50 values of examples in in vitro human DGKζ kinase activity inhibition assays. The procedure:
Human diacylglycerol kinase zeta (DGKζ) inhibitory activity of compounds of the present invention was quantified employing the human DGKζ kinase activity assay as described in the following paragraphs. In essence, the enzyme activity was measured by quantification of the adenosine-di-phosphate (ADP) generated as a co-product of the enzyme reaction via the “ADP-Glo™ Kinase Assay” kit from the company Promega. This detection system works as follows: In a first step the adenosine-tri-phosphate (ATP) not consumed in the kinase reaction is quantitatively converted to cyclic adenosine-mono-phosphate (cAMP) employing an adenylate cyclase (“ADP-Glo-reagent”), then the adenylate cyclase is stopped and the ADP generated in the kinase reaction is converted to ATP, which subsequently generates in a luciferase-based reaction a glow-luminescence signal (“Kinase Detection Reagent”).
C-terminally FLAG-tagged, recombinant full-length human DGKζ (inhouse expressed in baculovirus infected insect cells, purified using anti-Flag pulldown and size exclusion chromatography) was used as enzyme. As an alternative, commercially available enzyme by Carnabio can be used. As substrate for the kinase, 1,2-dioleoyl-sn-glycerol, reconstituted in octyl-β-D-glucopyranoside micelles, was used. […] Subsequently, 22.55 volumes of a 510 mM solution of octyl-β-D-glucopyranoside (Sigma-Aldrich, Cat. #O8001-10G) in 50 mM MOPS buffer (pH 7.4) were added, and the mixture was sonicated in an ultrasonic bath for 20 s. Then 35 volumes of 50 mM MOPS buffer (pH 7.4) were added to yield a solution of 0.28 mM 1,2 dioleoyl-sn-glycerol and 200 mM octyl-β-D-glucopyranoside, which was aliquoted, flash-frozen in liquid nitrogen, and stored at −20° C. until use.
For the assay 50 nl of a 100-fold concentrated solution of the test compound in dimethyl sulfoxide (DMSO, Sigma) was pipetted into either a white 1536-well or a white low-volume 384-well microtiter plate (both Greiner Bio-One, Frickenhausen, Germany). […] The concentration of DGKζ was adjusted depending of the activity of the enzyme lot and was chosen appropriate to have the assay in the linear range, a typical concentration is about 0.1 nM. The reaction was stopped by the addition of 2.5 μL of “ADP-Glo-reagent” (1 to 1.5 diluted with water) and the resulting mixture was incubated at 22° C. for 1 h to convert the ATP not consumed in the kinase reaction completely to cAMP. Subsequently 2.5 μl of the “kinase detection reagent” (1.2 fold more concentrated than recommended by the producer) were added, the resulting mixture was incubated at 22° C. for 1 h and then the luminescence measured with a suitable measurement instrument (e.g. Viewlux™ from Perkin-Elmer). The amount of emitted light was taken as a measure for the amount of ADP generated and thereby for the activity of the DGKζ.
The data were normalised (enzyme reaction without inhibitor=0% inhibition, all other assay components but no enzyme=100% inhibition).
What is called IC50 is the concentration needed to halve the response being measured. With `CC(C(N)=O)N(c1ccc(F)cc1)c1nc(N)c(C(=O)c2cc(C(=O)NC3(C4CC4)CC3)no2)s1` (racemic) [Example 24, rac-5-[4-amino-2-(N-(2-amino-1-methyl-2-oxo-ethyl)-4-fluoro-anilino)thiazole-5-carbonyl]-N-(1-cyclopropylcyclopropyl)isoxazole-3-carboxamide], the IC50 turned out to be 120 nM. The value for `CC(C(N)=O)N(c1ccc(F)cc1)c1nc(N)c(C(=O)c2cc(C(=O)NC3CCCC3)no2)s1` (racemic) [Example 25, rac-5-[4-amino-2-(N-(2-amino-1-methyl-2-oxo-ethyl)-4-fluoro-anilino)thiazole-5-carbonyl]-N-cyclopentyl-isoxazole-3-carboxamide] was 134 nM. Turning to `CC(C(N)=O)N(c1ccc(F)cc1)c1nc(N)c(C(=O)c2cc(C(=O)NCCOC(C)(C)C)no2)s1` (racemic) [Example 26, rac-5-[4-amino-2-(N-(2-amino-1-methyl-2-oxo-ethyl)-4-fluoro-anilino)thiazole-5-carbonyl]-N-(2-tert-butoxyethyl)isoxazole-3-carboxamide], the concentration for half-maximal inhibition (IC50) amounted to 138 nM. As for `CC(C(N)=O)N(c1ccc(F)cc1)c1nc(N)c(C(=O)c2cc(C(=O)N3CCCCC3)no2)s1` (racemic) [Example 27, rac-2-(N-[4-amino-5-[3-(piperidine-1-carbonyl)isoxazole-5-carbonyl]thiazol-2-yl]-4-fluoro-anilino)propanamide], the half-inhibitory concentration (IC50) came out at 148 nM.

In the case of `CC(C(N)=O)N(c1ccc(F)cc1)c1nc(N)c(C(=O)c2cc(C(=O)Nc3ccccn3)no2)s1` (racemic) [Example 28, rac-5-[4-amino-2-(N-(2-amino-1-methyl-2-oxo-ethyl)-4-fluoro-anilino)thiazole-5-carbonyl]-N-(2-pyridyl)isoxazole-3-carboxamide], the IC50 is 90 nM. In the case of `CC(C(N)=O)N(c1ccc(F)cc1)c1nc(N)c(C(=O)c2cc(C(=O)NCCOC(F)(F)F)no2)s1` (racemic) [Example 29, rac-5-[4-amino-2-(N-(2-amino-1-methyl-2-oxo-ethyl)-4-fluoro-anilino)thiazole-5-carbonyl]-N-[2-(trifluoromethoxy)ethyl]isoxazole-3-carboxamide], the concentration for half-maximal inhibition (IC50) came out at 97 nM. Take `CC(C(N)=O)N(c1ccc(F)cc1)c1nc(N)c(C(=O)c2cc(C(=O)NC3(C)CCC3)no2)s1` (racemic) [Example 30, rac-5-[4-amino-2-(N-(2-amino-1-methyl-2-oxo-ethyl)-4-fluoro-anilino)thiazole-5-carbonyl]-N-(1-methylcyclobutyl)isoxazole-3-carboxamide]: the half-inhibitory concentration (IC50) is 88 nM. Turning to `CC(C(N)=O)N(c1ccc(F)cc1)c1nc(N)c(C(=O)c2cc(C(=O)NC34CC(C3)C4)no2)s1` (racemic) [Example 31, rac-5-[4-amino-2-(N-(2-amino-1-methyl-2-oxo-ethyl)-4-fluoro-anilino)thiazole-5-carbonyl]-N-(1-bicyclo[1.1.1]pentanyl)isoxazole-3-carboxamide], the IC50 came to 193 nM. The value for `CC(C(N)=O)N(c1ccc(F)cc1)c1nc(N)c(C(=O)c2cc(C(=O)NC3CC(F)(F)C3)no2)s1` (racemic) [Example 32, rac-5-[4-amino-2-(N-(2-amino-1-methyl-2-oxo-ethyl)-4-fluoro-anilino)thiazole-5-carbonyl]-N-(3,3-difluorocyclobutyl)isoxazole-3-carboxamide] was 93 nM; that for `CC(C(N)=O)N(c1ccc(F)cc1)c1nc(N)c(C(=O)c2cc(C(=O)NC3CCC(F)(F)C3)no2)s1` (racemic) [Example 33, 5-[4-amino-2-(N-(2-amino-1-methyl-2-oxo-ethyl)-4-fluoro-anilino)thiazole-5-carbonyl]-N-(3,3-difluorocyclopentyl)isoxazole-3-carboxamide] was 48 nM. For `CC(C)NC(=O)c1cc(C(=O)c2sc(N(c3ccc(F)cc3)C(C)C(N)=O)nc2N)on1` (racemic) [Example 34, rac-5-[4-amino-2-(N-(2-amino-1-methyl-2-oxo-ethyl)-4-fluoro-anilino)thiazole-5-carbonyl]-N-isopropyl-isoxazole-3-carboxamide], the half-maximal inhibitory concentration (IC50) worked out at 223 nM.

Consider `CC(C(N)=O)N(c1ccc(F)cc1)c1nc(N)c(C(=O)c2cc(C(=O)NCC#N)no2)s1` (racemic) [Example 35, rac-5-[4-amino-2-(N-(2-amino-1-methyl-2-oxo-ethyl)-4-fluoro-anilino)thiazole-5-carbonyl]-N-(cyanomethyl)isoxazole-3-carboxamide], for which the IC50 was determined as 566 nM. Regarding `COCC(C)NC(=O)c1cc(C(=O)c2sc(N(c3ccc(F)cc3)C(C)C(N)=O)nc2N)on1` (racemic) [Example 36, 5-[4-amino-2-(N-(2-amino-1-methyl-2-oxo-ethyl)-4-fluoro-anilino)thiazole-5-carbonyl]-N-(2-methoxy-1-methyl-ethyl)isoxazole-3-carboxamide], the concentration for half-maximal inhibition (IC50) was determined as 446 nM. Regarding `CC(C(N)=O)N(c1ccc(F)cc1)c1nc(N)c(C(=O)c2cc(C(=O)NC3CCCC3(C)C)no2)s1` (racemic) [Example 37, 5-[4-amino-2-(N-(2-amino-1-methyl-2-oxo-ethyl)-4-fluoro-anilino)thiazole-5-carbonyl]-N-(2,2-dimethylcyclopentyl)isoxazole-3-carboxamide], the half-maximal inhibitory concentration (IC50) was 43 nM. With `CC(C(N)=O)N(c1ccc(F)cc1)c1nc(N)c(C(=O)c2cc(C(=O)N[C@H]3C[C@@H](F)C3)no2)s1` (mixture of isomers) [Example 38, 5-[4-amino-2-(N-(2-amino-1-methyl-2-oxo-ethyl)-4-fluoro-anilino)thiazole-5-carbonyl]-N-(cis-3-fluorocyclobutyl)isoxazole-3-carboxamide], the IC50 was 344 nM. With `CC(C(N)=O)N(c1ccc(F)cc1)c1nc(N)c(C(=O)c2cc(C(=O)NC3(C)CCCC3)no2)s1` (racemic) [Example 39, rac-5-[4-amino-2-(N-(2-amino-1-methyl-2-oxo-ethyl)-4-fluoro-anilino)thiazole-5-carbonyl]-N-(1-methylcyclopentyl)isoxazole-3-carboxamide], the 50% inhibitory concentration (IC50) amounted to 53 nM. Turning to `CC(C(N)=O)N(c1ccc(F)cc1)c1nc(N)c(C(=O)c2cc(C(=O)NC(CF)CF)no2)s1` (racemic) [Example 40, rac-5-[4-amino-2-(N-(2-amino-1-methyl-2-oxo-ethyl)-4-fluoro-anilino)thiazole-5-carbonyl]-N-[2-fluoro-1-(fluoromethyl)ethyl]isoxazole-3-carboxamide], the 50% inhibitory concentration (IC50) was 204 nM. Regarding `CC(NC(=O)c1cc(C(=O)c2sc(N(c3ccc(F)cc3)C(C)C(N)=O)nc2N)on1)C(F)F` (racemic) [Example 41, 5-[4-amino-2-(N-(2-amino-1-methyl-2-oxo-ethyl)-4-fluoro-anilino)thiazole-5-carbonyl]-N-(2,2-difluoro-1-methyl-ethyl)isoxazole-3-carboxamide], the IC50 was determined as 134 nM.

Regarding `CC(C(N)=O)N(c1ccc(F)cc1)c1nc(N)c(C(=O)c2cc(C(=O)N[C@H]3C[C@H](F)C3)no2)s1` (mixture of isomers) [Example 42, 5-[4-amino-2-(N-(2-amino-1-methyl-2-oxo-ethyl)-4-fluoro-anilino)thiazole-5-carbonyl]-N-(trans-3-fluorocyclobutyl)isoxazole-3-carboxamide], the IC50 is 146 nM.

The record behind these values is US20230167103A1 (Bayer Aktiengesellschaft, priority 2020, published 2023).
